# From ChEMBL document CHEMBL4602644, “Synthesis of PJOV56, a new quinoxalinyl-hydrazone derivative able to induce autophagy and apoptosis in colorectal cancer cells, and related compounds” (Bioorg Med Chem Lett, 2020)
# Calls of active or inactive are those of the source. The calls are words filed in the database; no cut-off is given here.
# What was measured:
# OVCAR-8 = test: Cytotoxicity against human OVCAR8 cells assessed as cell growth inhibition at 5 ug/ml measured after 72 hrs by MTT assay relative to control; type: functional; conditions: OVCAR-8, 72 h, read-out: GI
# K562 = test: Cytotoxicity against human K562 cells assessed as reduction in cell viability measured after 72 hrs by MTT assay; type: functional, cell-based; conditions: K562, 72 h
# HepG2 = test: Cytotoxicity against human HepG2 cells assessed as reduction in cell viability measured after 72 hrs by MTT assay; type: functional, cell-based; conditions: HepG2, 72 h
# L929 = test: Cytotoxicity against mouse L929 cells assessed as reduction in cell viability measured after 72 hrs by MTT assay; type: cell-based; conditions: L929, 72 h
# HCT-116 [1] = test: Induction of morphological changes in human HCT116 cells assessed as increase in cell size at 1.5 to 6 uM measured after 48 hrs by propidium iodide staining based flow cytometry; type: functional
# HCT-116 [2] = test: Induction of morphological changes in human HCT116 cells assessed as decrease in number of mitotic cells at 1.5 to 6 uM measured after 48 hrs by propidium iodide staining based flow cytometry; type: functional, cell-based
# HCT-116 [3] = test: Induction of morphological changes in human HCT116 cells assessed as increase in size of intracellular vesicles at 1.5 to 6 uM measured after 48 hrs by propidium iodide staining based flow cytometry; type: functional, cell-based
# HCT-116 [4] = test: Induction of morphological changes in human HCT116 cells assessed as discrete apoptotic cells at 6 uM measured after 48 hrs by propidium iodide staining based flow cytometry; type: functional, cell-based
# HCT-116 [5] = test: Induction of autophagy in human HCT116 cells assessed as formation of acidic vesicular organelles at 3 to 6 uM measured after 48 hrs by acridine orange staining based confocal microscopy; type: functional, cell-based
# HCT-116 [6] = test: Induction of autophagy in human HCT116 cells increase in Beclin 1 level at 3 uM measured after 48 hrs by Western blot analysis; type: functional, cell-based
# HCT-116 [7] = test: Induction of autophagy in human HCT116 cells increase in LC3A/B-II level at 3 to 6 uM measured after 48 hrs by Western blot analysis; type: functional, cell-based
# HCT-116 [8] = test: Induction of apoptosis in human HCT116 cells assessed as live cells at 1.5 uM measured after 48 hrs by annexinV-PE/7-AAD staining based flow cytometric analysis (reference value: 91.42 %); type: functional
# HCT-116 [9] = test: Induction of apoptosis in human HCT116 cells assessed as late apoptotic cells at 1.5 uM measured after 48 hrs by annexinV-PE/7-AAD staining based flow cytometric analysis (reference value: 0.18 %); type: functional
# HCT-116 [10] = test: Induction of apoptosis in human HCT116 cells assessed as necrotic cells at 1.5 uM measured after 48 hrs by annexinV-PE/7-AAD staining based flow cytometric analysis (reference value: 0.16 %); type: functional
# HCT-116 [11] = test: Induction of apoptosis in human HCT116 cells assessed as live cells at 3 uM measured after 48 hrs by annexinV-PE/7-AAD staining based flow cytometric analysis (reference value: 91.42 %); type: functional
# HCT-116 [12] = test: Induction of apoptosis in human HCT116 cells assessed as late apoptotic cells at 3 uM measured after 48 hrs by annexinV-PE/7-AAD staining based flow cytometric analysis (reference value: 0.18 %); type: functional
# HCT-116 [13] = test: Induction of apoptosis in human HCT116 cells assessed as necrotic cells at 3 uM measured after 48 hrs by annexinV-PE/7-AAD staining based flow cytometric analysis (reference value: 0.16 %); type: functional
# HCT-116 [14] = test: Induction of apoptosis in human HCT116 cells assessed as live cells at 6 uM measured after 48 hrs by annexinV-PE/7-AAD staining based flow cytometric analysis (reference value: 91.42 %); type: functional
# HCT-116 [15] = test: Induction of apoptosis in human HCT116 cells assessed as early apoptotic cells at 6 uM measured after 48 hrs by annexinV-PE/7-AAD staining based flow cytometric analysis (reference value: 6.53 %); type: functional
# HCT-116 [16] = test: Induction of apoptosis in human HCT116 cells assessed as late apoptotic cells at 6 uM measured after 48 hrs by annexinV-PE/7-AAD staining based flow cytometric analysis (reference value: 0.18 %); type: functional
# HCT-116 [17] = test: Induction of apoptosis in human HCT116 cells assessed as necrotic cells at 6 uM measured after 48 hrs by annexinV-PE/7-AAD staining based flow cytometric analysis (reference value: 0.16 %); type: functional
# HCT-116 [18] = test: Induction of apoptosis in human HCT116 cells assessed as increase in caspase 7 expression at 3 to 6 uM measured after 48 hrs by Western blot analysis; type: functional, cell-based
# HCT-116 [19] = test: Induction of apoptosis in human HCT116 cells assessed as […] in cleaved caspase 7 expression at 3 to 6 uM measured after 48 hrs by Western blot analysis; type: functional, cell-based
# HCT-116 [20] = test: Disruption of membrane integrity in human HCT116 cells assessed as increase in non-viable cells at 3 uM measured after 48 hrs by propidium iodide staining based flow cytometry relative to control; type: functional
# HCT-116 [21] = test: Disruption of membrane integrity in human HCT116 cells assessed as increase in non-viable cells at 6 uM measured after 48 hrs by propidium iodide staining based flow cytometry relative to control; type: functional
# HCT-116 [22] = test: Disruption of membrane integrity in human HCT116 cells assessed as decrease in viable cells at 6 uM measured after 48 hrs by propidium iodide staining based flow cytometry relative to control; type: functional
# HCT-116 [23] = test: Disruption of membrane integrity in human HCT116 cells at 1.5 to 3 uM measured after 48 hrs by propidium iodide staining based flow cytometry; type: functional, cell-based
# HCT-116 [24] = test: Induction of apoptosis in human HCT116 cells assessed as late apoptotic cells at 6 uM measured after 48 hrs by annexin-V staining based flow cytometry (reference value: 0.34 %); type: functional
# HCT-116 [25] = test: Cell cycle arrest in human HCT116 cells assessed as accumulation at S phase at 1.5 uM measured after 48 hrs by propidium iodide staining based flow cytometry (reference value: 33.29 %); type: functional
# HCT-116 [26] = test: Cell cycle arrest in human HCT116 cells assessed as accumulation at G2/M phase at 1.5 uM measured after 48 hrs by propidium iodide staining based flow cytometry (reference value: 24.98 %); type: functional
# HCT-116 [27] = test: Cell cycle arrest in human HCT116 cells assessed as accumulation at G0/G1 phase at 3 uM measured after 48 hrs by propidium iodide staining based flow cytometry (reference value: 41.67 %); type: functional
# HCT-116 [28] = test: Cell cycle arrest in human HCT116 cells assessed as accumulation at G2/M phase at 3 uM measured after 48 hrs by propidium iodide staining based flow cytometry (reference value: 24.98 %); type: functional
# HCT-116 [29] = test: Cell cycle arrest in human HCT116 cells assessed as accumulation at G0/G1 phase at 6 uM measured after 48 hrs by propidium iodide staining based flow cytometry (reference value: 41.67 %); type: functional
# HCT-116 [30] = test: Cell cycle arrest in human HCT116 cells assessed as accumulation at S phase at 6 uM measured after 48 hrs by propidium iodide staining based flow cytometry (reference value: 33.29 %); type: functional
# HCT-116 [31] = test: Cell cycle arrest in human HCT116 cells assessed as accumulation at G2/M phase at 6 uM measured after 48 hrs by propidium iodide staining based flow cytometry (reference value: 24.98 %); type: functional
structure (smiles),measurement,setting,value
C(=N\Nc1cnc2ccccc2n1)/c1ccccn1,inhibition of growth at 5 µg/mL,OVCAR-8,97.8%
same,IC50,K562,2620 nM
same,IC50,HepG2,7.35 µM
same,IC50,L929,2270 nM
same,Activity,HCT-116 [1],Active
same,Activity,HCT-116 [2],Active
same,Activity,HCT-116 [3],Active
same,Activity,HCT-116 [4],Active
same,Activity,HCT-116 [5],Active
same,Activity,HCT-116 [6],Active
same,Activity,HCT-116 [7],Active
same,Activity,HCT-116 [8],89.63%
same,Activity,HCT-116 [9],1.14%
same,Activity,HCT-116 [10],0.63%
same,Activity,HCT-116 [11],90.36%
same,Activity,HCT-116 [12],2.55%
same,Activity,HCT-116 [13],0.87%
same,Activity,HCT-116 [14],66.2%
same,Activity,HCT-116 [15],8.28%
same,Activity,HCT-116 [16],17.9%
same,Activity,HCT-116 [17],7.49%
same,Activity,HCT-116 [18],Active
same,Activity,HCT-116 [19],Active
same,Activity,HCT-116 [20],9.46%
same,Activity,HCT-116 [21],31.36%
same,Activity,HCT-116 [22],68.31%
same,Activity,HCT-116 [23],inactive
same,Activity,HCT-116 [24],25.6%
same,Activity,HCT-116 [25],34.31%
same,Activity,HCT-116 [26],29.99%
same,Activity,HCT-116 [27],14.45%
same,Activity,HCT-116 [28],30.19%
same,Activity,HCT-116 [29],64.85%
same,Activity,HCT-116 [30],29.41%
same,Activity,HCT-116 [31],5.8%
